From US20180296532A1, “RNA-Focused Small Molecules for Inhibiting RNA Toxicity in Myotonic Dystrophy” (The Scripps Research Institute, priority 2015, published 2018)

Columns and labels:
[1] = test system: HSA^LR mice; assay: Pre-mRNA splicing defects in HSA^LR mouse model of DM1; type: in vivo; settings: 40 mg/kg/day intraperitoneally for 18 days
Description: A mouse model of DM1 has been reported in which 250 rCUG repeats are expressed using an actin promoter (human skeletal actin long repeat, HSA^LR).^24 The presence of these repeats results in dysregulation of alternative splicing in the muscle-specific chloride ion channel (Clcn1) and the sarcoplasmic/endoplasmic reticulum calcium ATPase 1 (Serca1/Atp2a1) pre-mRNAs. Clcn1 exon 7a is excluded ˜100% in mRNA from normal adult mice: DM1 mice have an exclusion rate of ˜50% (FIG. 12A).
All experimental procedures, mouse handling, and husbandry were completed in accordance with the Association for Assessment and Accreditation of Laboratory Animal Care. A mouse model for DM1(67). HSALR in line 20b, was used. HSALR mice express human skeletal actin RNA with 250 CUG repeats in the 3′ UTR. Age- and gender-matched HSALR mice were injected intraperitoneally with either 40 mg/kg 2GN8 in water for treatment and 0.9% NaCl for control once per day for 18 days. Mice were sacrificed one day after the last injection, and the vastus muscle was obtained. RNA was extracted from the vastus tissue, and cDNA was synthesized as previously described.

[2] = test system: DMPK mRNA; assay: Effect of 2GN8 on DMPK mRNA abundance in DM1 patient derived fibroblasts by qRT-PCR; type: cell-based; settings: patient derived fibroblasts with 500 CUG repeats; bioactive concentrations
Procedure: Evaluation of the effect of 2GN8 on the abundance of DMPK mRNA was assessed using patient derived fibroblasts with 500 CUG repeats.
The effect of 2GN8 on the abundance of DMPK mRNA was assessed using DM1 patient derived fibroblasts containing 500 CTG repeats (GM03987). Cells were grown as monolayers in 6 well plates in growth medium (1×EMEM (Lonza), 10% FBS, 1× glutagro (Corning), 1×MEM non-essential amino acids (Corning) and 1× antibiotic/antimycotic (Corning)). Once cells were ˜80% confluent, they were treated with growth medium containing the 2GN8 (300, 200 and 100 μM). After 48 h the cells were lysed and the total RNA was harvested using Trizol reagent (Life Technologies). Approximately 100 ng of RNA was used for RT qScript cDNA synthesis kit (Quanta BioSciences). 30% of the RT reaction was used for real time PCR (qPCR) with SYBR green master mix (Life Technologies) performed on a 7900HT Fast Real-Time PCR System (Applied Biosystems). The PCR primers for DMPK mRNA were 5′-CGTGCAAGCGCCCAG (forward) and 5′-[…] (reverse). The PCR primers for 18S ribosomal RNA were 5′-[…] (forward) and 5′-[…] (reverse).

[3] = test system: r(CUG)12-MBNL1 complex; assay: TR-FRET assay, disruption of the r(CUG)12-MBNL1 complex; type: biochemical
Description: DM1 is caused by an RNA gain-of-function mechanism in which r(CUG)^exp binds and inactivates proteins involved RNA biogenesis.^(25-29) One protein, muscleblind-like 1 (MBNL1), regulates the alternative splicing of a sub-set of RNAs that are de-regulated in DM1.^(27, 43-45) We discovered that Formula (I) compounds disrupt the r(CUG)12-MBNL1 complex in vitro as determined by a previously described time-resolved fluorescence resonance energy transfer (TR-FRET) assay (FIG. 1A).^(46)
The in vitro activity of library compounds was assessed by disruption of the r(CUG)12-MBNL1 complex using a previously reported TR-FRET assay.^(32, 46) Biotinylated RNA was folded at 60° C. in 1× Folding Buffer (20 mM HEPES, pH 7.5, […], and 10 mM NaCl) and slowly cooled to room temperature. The buffer was then adjusted to 1× Assay Buffer (1× Folding Buffer supplemented with 2 mM MgCl2, 2 mM CaCl2, 5 mM DTT, 0.1% BSA, 0.05% Tween-20) and MBNL1-His6 was added. The final concentrations of RNA and MBNL1-His6 were 80 nM and 62 nM, respectively. After incubation at room temperature for 15 min, 8 μL aliquots were then dispensed into each well of low volume, 384-well plates using a flying reagent dispenser. […] Plates were incubated at room temperature for 1 h, and then TR-FRET was measured using a Molecular Devices SpectraMax M5 plate reader using an excitation wavelength of 345 nm and a 420 nm cutoff. Fluorescence was measured at 545 and 665 nm. Library compounds were screened for potential intrinsic fluorescence under screening conditions. No library compounds were fluorescent at 665 nm and two non-hit compounds have low fluorescence at 545 nm.
To calculate the percent inhibition of complex formation, the ratio of fluorescence intensity at 545 nm and 665 nm in the presence of compound was compared to the ratio in the absence of small molecule (100% r(CUG)12-MBNL1 complex formation) and in the absence of RNA and protein (no complex formation). […]

N=C(N)Nc1ccc2nc(-c3ccc(-c4nc5ccc(NC(=N)N)cc5[nH]4)cc3)[nH]c2c1 [Compound 2GN8]
Clcn1 pre-mRNA splicing defects [1]: improved to nearly wild type levels
Serca1 pre-mRNA splicing defects [1]: improved to nearly wild type levels
effect on abundance of DMPK mRNA [2]: did not have any effect
IC50 [3]: 39 ± 4 µM
enhancement in potency of 2GN8 over precursor compound 27 ([3]; ratio of TR-FRET IC50 values): roughly 14 fold
